According to ChEMBL document CHEMBL1201862, “PubChem BioAssay data set” (2004):
Active and inactive are the calls of the source.

Columns and labels:
[1] = blockers of bursicon-stimulated LGR2 cAMP reporter – cell-based, HEK293, CRE-luciferase reporter, cherry pick, set 2, dose response (AID 743343); assay type: functional;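 note: transfected cells were stimulated with diluted bursicon conditioned medium after compound addition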
[2] = blockade of melanocortin 4 receptor signaling – cell-based, plate reader, cherry pick, counter-screen for LGR2 antagonist project, dose response (AID 743444); assay type: functional;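 note: transfected HEK 293 cells stimulated with alpha-MSH peptide; potency of inhibitors of the alpha-MSH evoked signal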
[3] = viability of PTEN-deleted HCT116 cells – cell-based, HCT116 PTEN knockout, dose response (AID 1047); assay type: functional;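 note: HCT116 colon tumor cells with PTEN knocked out; cells exposed to compound for 60 hours before readout; potency for loss of cell viability measured by luminescence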
[4] = viability of HCT116 lacking mutant beta-catenin – cell-based, human colon tumor, dose response (AID 1045); assay type: functional;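 note: HCT116 colon tumor cells with beta catenin knocked out; cells exposed to compound for 60 hours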
[5] = target: T1, DNA repair protein RAD52 homolog (Homo sapiens, UniProt P43351); assay type: functional, biochemical
T1 sequence (P43351 whole entry): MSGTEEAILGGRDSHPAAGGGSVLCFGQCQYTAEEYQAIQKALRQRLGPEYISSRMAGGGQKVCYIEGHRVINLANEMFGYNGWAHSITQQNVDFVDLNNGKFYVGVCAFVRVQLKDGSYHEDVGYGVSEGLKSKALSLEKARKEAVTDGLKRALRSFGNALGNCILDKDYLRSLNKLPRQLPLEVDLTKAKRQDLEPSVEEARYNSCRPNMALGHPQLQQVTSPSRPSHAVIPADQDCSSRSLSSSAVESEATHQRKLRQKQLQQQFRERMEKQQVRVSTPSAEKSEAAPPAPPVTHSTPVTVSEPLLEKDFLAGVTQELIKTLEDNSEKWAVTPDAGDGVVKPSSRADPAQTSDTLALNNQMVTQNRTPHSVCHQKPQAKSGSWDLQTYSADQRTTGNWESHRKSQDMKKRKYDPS

[6] = target: FAD-linked sulfhydryl oxidase ALR (Homo sapiens, UniProt P55789); test: ALR-catalysed DTT oxidation blockers – biochemical, H2O2 detection, luminescence, cherry-pick, dose response (AID 493248)
Chain of FAD-linked sulfhydryl oxidase ALR (P55789 whole entry): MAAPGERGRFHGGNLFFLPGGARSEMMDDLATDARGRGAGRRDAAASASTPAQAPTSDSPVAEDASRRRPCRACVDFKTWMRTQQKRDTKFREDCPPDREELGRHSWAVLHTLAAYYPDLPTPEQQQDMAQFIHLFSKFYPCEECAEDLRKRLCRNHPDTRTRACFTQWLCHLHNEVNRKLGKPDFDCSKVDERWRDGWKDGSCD

[7] = target: Glyceraldehyde-3-phosphate dehydrogenase (Homo sapiens, UniProt P04406)
Chain of Glyceraldehyde-3-phosphate dehydrogenase (P04406 whole entry): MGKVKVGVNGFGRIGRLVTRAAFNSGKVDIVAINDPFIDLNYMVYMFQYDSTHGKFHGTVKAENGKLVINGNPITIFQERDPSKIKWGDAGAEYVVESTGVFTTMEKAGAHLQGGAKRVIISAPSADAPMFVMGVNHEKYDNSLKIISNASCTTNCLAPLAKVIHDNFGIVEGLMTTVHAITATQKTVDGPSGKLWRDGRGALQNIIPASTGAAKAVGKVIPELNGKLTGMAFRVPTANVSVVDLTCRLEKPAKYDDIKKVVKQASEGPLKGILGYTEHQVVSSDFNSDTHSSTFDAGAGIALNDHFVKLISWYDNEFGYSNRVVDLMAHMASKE

Large T antigen = Large T antigen (Simian virus 40, UniProt P03070); assay type: functional, Betapolyomavirus macacae;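 note: Confirmatory-stage PubChem screen for compounds that inhibit SV40 T antigen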
Chain of Large T antigen (P03070 whole entry): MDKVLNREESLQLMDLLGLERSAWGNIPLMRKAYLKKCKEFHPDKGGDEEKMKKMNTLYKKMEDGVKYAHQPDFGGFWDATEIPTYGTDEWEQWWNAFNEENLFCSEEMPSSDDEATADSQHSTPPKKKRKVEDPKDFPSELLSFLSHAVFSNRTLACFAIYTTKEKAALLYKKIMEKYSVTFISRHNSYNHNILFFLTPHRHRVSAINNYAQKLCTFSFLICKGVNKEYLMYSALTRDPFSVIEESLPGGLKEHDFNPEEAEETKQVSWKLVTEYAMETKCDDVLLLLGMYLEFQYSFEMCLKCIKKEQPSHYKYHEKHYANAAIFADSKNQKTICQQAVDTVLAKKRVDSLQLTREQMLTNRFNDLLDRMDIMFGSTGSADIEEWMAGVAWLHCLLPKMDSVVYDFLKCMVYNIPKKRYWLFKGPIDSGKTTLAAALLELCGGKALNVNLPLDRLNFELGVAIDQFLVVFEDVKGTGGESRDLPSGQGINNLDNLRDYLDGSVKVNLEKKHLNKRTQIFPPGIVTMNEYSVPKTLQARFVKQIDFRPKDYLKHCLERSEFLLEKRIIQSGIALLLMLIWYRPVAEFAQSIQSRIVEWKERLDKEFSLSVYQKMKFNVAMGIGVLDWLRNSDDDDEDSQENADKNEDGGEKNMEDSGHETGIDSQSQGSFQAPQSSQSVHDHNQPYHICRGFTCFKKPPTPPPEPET

[8] = Luminescence Cell-Based Dose Confirmation HTS to Identify Activators of 5'UTR Stem-Loop Driven Alpha-Synuclein mRNA Translation in H4 Neuroglioblastoma Cells. [Related pubchem assays: 1829 (Project Summary), 1814 (Primary HTS)]; assay type: functional
H4 = test: Luminescence Cell-Based Dose Response HTS to Identify Activators of 5'UTR Stem-Loop Driven Prion Protein mRNA Translation in H4 Neuroglioblastoma Cells. [Related pubchem assays: 1829 (Project Summary), 1814 (Primary HTS)]; assay type: functional; details: Homo sapiens
[9] = Luminescence Cell-Based Dose Response HTS to Identify Activators of Luciferase Translation or Activity in H4 […] Cells. [Related pubchem assays: 1829 (Project Summary), 1814 (Primary HTS)]; assay type: functional
[10] = target: T2, Polyadenylate-binding protein 1 (Homo sapiens, UniProt P11940); test: MLLE domain peptide-binding blockers, IC50 – biochemical, fluorescence polarization, FITC-PAM2 peptide, dose response (AID 602259); assay type: functional; details: read-out: IC50_Mean
T2 sequence (P11940 whole entry, the tested form may be a part): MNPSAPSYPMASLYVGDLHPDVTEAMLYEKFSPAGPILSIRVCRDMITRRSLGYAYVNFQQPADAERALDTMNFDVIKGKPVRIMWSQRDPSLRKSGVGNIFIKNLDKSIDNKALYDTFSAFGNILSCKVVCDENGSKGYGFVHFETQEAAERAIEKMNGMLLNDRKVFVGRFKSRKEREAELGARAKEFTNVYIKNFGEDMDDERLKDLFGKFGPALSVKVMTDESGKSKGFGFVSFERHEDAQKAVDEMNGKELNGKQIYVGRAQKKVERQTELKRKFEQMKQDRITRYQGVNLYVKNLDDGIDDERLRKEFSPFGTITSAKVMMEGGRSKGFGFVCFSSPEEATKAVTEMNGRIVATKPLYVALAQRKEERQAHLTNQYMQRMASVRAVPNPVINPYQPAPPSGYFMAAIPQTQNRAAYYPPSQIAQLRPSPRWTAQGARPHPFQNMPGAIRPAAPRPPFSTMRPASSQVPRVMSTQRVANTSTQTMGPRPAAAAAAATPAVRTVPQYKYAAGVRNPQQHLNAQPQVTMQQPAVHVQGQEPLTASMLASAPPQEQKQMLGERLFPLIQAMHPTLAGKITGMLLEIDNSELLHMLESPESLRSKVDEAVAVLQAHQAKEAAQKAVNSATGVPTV

[11] = target: T2, Polyadenylate-binding protein 1; test: MLLE binding blockers, Cy5 peptide tracer – biochemical, fluorescence polarization, Cy5-PAM2 peptide, secondary, miRNA deadenylation inhibitor project, dose response (AID 602260); assay type: functional; details: read-out: IC50_Mean
[12] = target: T3, Corticotropin-releasing factor receptor 2/Corticotropin-releasing factor-binding protein (Homo sapiens, UniProt P24387+Q13324); test: activators of CRF receptor 2 with binding protein – uHTS hits, confirmation (AID 602473); assay type: functional; details: read-out: EC50_Mean
T3 sequence (Q13324 whole entry): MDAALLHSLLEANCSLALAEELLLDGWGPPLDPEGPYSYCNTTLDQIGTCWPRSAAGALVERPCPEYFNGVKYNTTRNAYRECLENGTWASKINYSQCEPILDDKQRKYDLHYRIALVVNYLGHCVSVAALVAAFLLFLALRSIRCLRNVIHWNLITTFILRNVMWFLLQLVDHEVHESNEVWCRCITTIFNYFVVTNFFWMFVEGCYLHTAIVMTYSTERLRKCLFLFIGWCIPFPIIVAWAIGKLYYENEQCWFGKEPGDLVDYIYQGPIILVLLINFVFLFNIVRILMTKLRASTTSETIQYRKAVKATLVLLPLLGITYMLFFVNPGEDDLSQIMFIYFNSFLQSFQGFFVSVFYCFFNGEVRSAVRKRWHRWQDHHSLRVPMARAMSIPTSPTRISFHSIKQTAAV
T3 sequence (P24387 whole entry): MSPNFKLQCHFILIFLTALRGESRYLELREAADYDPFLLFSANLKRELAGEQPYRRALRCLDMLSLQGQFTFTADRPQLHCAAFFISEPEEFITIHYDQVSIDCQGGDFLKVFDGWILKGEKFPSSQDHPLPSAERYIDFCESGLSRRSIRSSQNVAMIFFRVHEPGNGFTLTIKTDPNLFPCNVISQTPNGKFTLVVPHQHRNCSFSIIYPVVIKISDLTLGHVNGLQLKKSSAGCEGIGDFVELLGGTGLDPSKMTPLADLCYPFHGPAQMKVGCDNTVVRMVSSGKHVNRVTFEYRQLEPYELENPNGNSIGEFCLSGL

[13] = target: T3, Corticotropin-releasing factor receptor 2/Corticotropin-releasing factor-binding protein; test: Dose Response confirmation of uHTS hits for small molecule antagonists of the CRF-binding protein and CRF-R2 receptor complex.; assay type: functional; details: read-out: IC50_Mean
[14] = target: T4, Heat shock factor protein 1 (Mus musculus, UniProt P38532); test: decrease of HSF1-responsive luciferase luminescence – cell-based, NIH3T3, dose retest, confirmation (AID 2382); assay type: functional;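 note: NIH3T3 fibroblasts with HSF1-driven luciferase reporter stressed by proteasome inhibitor MG132; luminescence from HSF1-driven luciferase expression after 8 hours of MG132 stress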
T4 sequence (P38532 whole entry): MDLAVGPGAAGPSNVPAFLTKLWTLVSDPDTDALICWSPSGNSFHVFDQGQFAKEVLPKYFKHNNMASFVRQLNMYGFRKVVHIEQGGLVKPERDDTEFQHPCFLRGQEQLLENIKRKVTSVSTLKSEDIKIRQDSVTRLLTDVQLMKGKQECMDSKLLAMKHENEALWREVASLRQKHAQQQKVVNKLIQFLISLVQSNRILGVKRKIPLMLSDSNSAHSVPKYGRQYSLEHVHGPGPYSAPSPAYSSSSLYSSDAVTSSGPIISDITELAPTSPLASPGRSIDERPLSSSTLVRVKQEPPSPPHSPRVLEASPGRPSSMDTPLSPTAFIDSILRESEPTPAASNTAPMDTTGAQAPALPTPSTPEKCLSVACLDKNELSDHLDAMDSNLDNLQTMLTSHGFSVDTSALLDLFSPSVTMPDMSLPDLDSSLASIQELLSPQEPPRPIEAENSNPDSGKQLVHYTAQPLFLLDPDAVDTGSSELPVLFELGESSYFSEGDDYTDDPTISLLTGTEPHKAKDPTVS

O=C(c1cc(-c2ccc(Cl)cc2Cl)on1)N1CCCC1
AC50 [1]: 5.36 µM (active)
AC50 [2]: 5.47 µM (active)

CN(C)CCN(C)Cc1ccccc1Sc1cccc2ccccc12
EC50 [3]: 12.8 µM (active)
EC50 [4]: 10.6 µM (active)
AC50 [5]: 11.2 µM (active)

COc1ccc(N)cc1NC(=O)CN1CCCC1
AC50 [5]: 9.95 µM (active)
AC50 [6]: 7.58 µM (active)

N#Cc1cc2cc3c(cc2nc1NCCNC(=S)NCCCN1CCOCC1)OCO3
AC50 [5]: 14.1 µM (active)

O=C(c1cc(-c2ccc(Cl)cc2Cl)n[nH]1)N(CCO)CCO
IC50 [7]: > 10 µM (inconclusive)

COc1cccc(/C=N/c2ccc(N3CCOCC3)cc2)c1O
IC50 (Large T antigen): 4.14 µM (active)

COc1ccc(N=C(S)NC23CN4CN(CN(C4)C2)C3)c(OC)c1
AC50 [5]: 16.3 µM (active)

C[C@@H]1[C@@H](Sc2ccccc2)CC(=O)O[C@@H]1c1ccc(-c2ccccc2)cc1
EC50 [8]: > 120 µM (not active)
EC50 (H4): > 120 µM (not active)
EC50 [9]: > 120 µM (not active)
IC50 [10]: > 66 µM (inactive)
IC50 [11]: > 66 µM (inactive)

COc1ccc2c(c1)CCN1C2CCN2C(=O)CCC21 (stereo unspecified)
IC50 [10]: > 66 µM (inactive)
IC50 [11]: > 66 µM (inactive)

CN(C)c1ccc(NC(=O)COC(=O)Cn2nnc3ccccc32)cc1
EC50 [12]: > 53 µM (inactive)
IC50 (Large T antigen): 6.63 µM (active)
IC50 [13]: > 47.1 µM (inactive)

CC(C)(C)c1ccc(C(=O)NCCOc2ccccc2F)cc1
EC50 [14]: < 0.16 µM (active)
AC50 [1]: 5.41 µM (active)
AC50 [2]: 4.25 µM (active)

FC(F)(F)c1cccc(NC(S)=Nc2cccc(N=C(S)Nc3cccc(C(F)(F)F)c3)n2)c1
IC50 [10]: > 66 µM (inactive)
IC50 [11]: > 66 µM (inactive)
